Source: ChEMBL document CHEMBL1128966, “Benzylphosphonic acid inhibitors of human prostatic acid phosphatase” (Bioorg Med Chem Lett, 1996)

These molecules were tested against T1, Prostatic acid phosphatase (Homo sapiens, UniProt P15309) (assay: Inhibition of human prostatic acid phosphatase was determined as inhibition of the hydrolysis of tyrosine phosphate).
T1 sequence (P15309 whole entry): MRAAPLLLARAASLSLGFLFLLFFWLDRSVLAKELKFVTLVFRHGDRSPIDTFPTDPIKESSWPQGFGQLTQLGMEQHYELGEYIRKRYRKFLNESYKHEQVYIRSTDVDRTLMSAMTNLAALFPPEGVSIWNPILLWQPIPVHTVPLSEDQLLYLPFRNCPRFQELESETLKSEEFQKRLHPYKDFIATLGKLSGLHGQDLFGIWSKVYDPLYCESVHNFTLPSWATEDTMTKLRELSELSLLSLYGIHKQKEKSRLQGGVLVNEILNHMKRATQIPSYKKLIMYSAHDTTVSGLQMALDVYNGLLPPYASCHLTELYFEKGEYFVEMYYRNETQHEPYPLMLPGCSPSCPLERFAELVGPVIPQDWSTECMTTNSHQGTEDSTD

| Compound | IC50 |
| --- | --- |
| O=P(O)(O)C1c2ccccc2Sc2ccccc21 | > 100 µM |
| O=P(O)(O)C1c2ccccc2CCc2ccccc21 | 94 µM |
| O=P(O)(O)Cc1ccccc1 [BENZYLPHOSPHONIC ACID] | > 500 µM |
| O=P(O)(O)C1c2ccccc2C=Cc2ccccc21 | > 100 µM |
| O=P(O)(O)C1c2ccccc2-c2ccccc21 | > 500 µM |
| O=P(O)(O)C(c1ccccc1)c1ccccc1 | 142 µM |

The next molecules have a lower IC50 than those just listed; values first:

| IC50 | Compound |
| --- | --- |
| 88 µM | O=P(O)(O)Cc1cccc(C(F)(F)F)c1 |
| 14 µM | O=P(O)(O)C(CCc1ccccc1)c1ccccc1 (configuration not stated) |
| 70 µM | O=P(O)(O)C(c1ccc(-c2ccccc2)cc1)c1ccc(-c2ccccc2)cc1 |
| 16 µM | O=P(O)(O)C(Cc1ccc(-c2ccccc2)cc1)c1ccccc1 (configuration not stated) |
| 22 µM | O=P(O)(O)C1c2ccccc2Oc2ccccc21 |
| 67 µM | O=P(O)(O)C(c1ccccc1)c1ccc(-c2ccccc2)cc1 (configuration not stated) |
